One data set deals with HeLa S3 cells. Put plainly: Growth Inhibition Test on HeLa S3 Cells. In kind it is cell-based. The following applies: Homo sapiens, 1 hour exposure, then 72 hours incubation, Neutral Red, 550 nm. On the procedure: Growth Inhibition Test on HeLa S3 Cells
HeLa S3 cells were suspended in a MEM medium containing 10% fetal calf serum and 2 mM glutamine at a concentration of 3×10^4 cells/ml, and 0.1 ml of the cell suspension was put into each well of a 96-well microtiter plate.
After culturing at 37° C. overnight in a carbon dioxide gas incubator, 0.05 ml of a test sample appropriately diluted with the medium was added to each well. The cells were further cultured for one hour in the carbon dioxide gas incubator and the culture supernatant was removed. The residue was washed once with a phosphate buffer saline [PBS(-)] and 0.1 ml of a fresh medium was added to each well, and the cells were further incubated at 37° C. for 72 hours in the carbon dioxide gas incubator. After removal of the supernatant, 0.1 ml of a culture medium containing 0.02% Neutral Red was added to each well, and the cells were further incubated at 37° C. for one hour in the carbon dioxide gas incubator to stain the cells. After removal of the culture supernatant, each well was washed once with a physiological saline, and the dye was extracted with 0.001 N HCl/30% methanol. Absorbance of the extract at 550 nm was measured with a microplate reader. The cell growth inhibition percentage was calculated according to the following formula from the absorbance of the extract of the cells treated with the test compound in various concentrations and that of intact cells. [formula]
From the cell growth inhibition percentage thus obtained, the concentration of the test compound which inhibits cell growth by 50% (IC50) was determined.

The next data set concerns Sarcoma 180 Solid Tumor. Put plainly: Anti-tumor Activity to Sarcoma 180 Solid Tumor. It is filed as in vivo. The note with it: Mus musculus, Sarcoma-180, iv, 168 h; dose of showing T/C=0.5 (tumor volume), male ddY mice, single i.v. 24 hours after s.c. implantation, measured at 7 days. On the procedure:
Anti-tumor Activity to Sarcoma 180 Solid Tumor
5×10^6 Sarcoma 180 cells were abdominally implanted into a ddY mouse and the cells were collected from the ascites of the mouse 7 days after the implantation. The cells were washed once with a sterilized physiological saline solution and then suspended in a sterilized physiological saline solution to prepare a cell suspension of 5×10^7 cells/ml. 0.1 ml of the cell suspension was subcutaneously implated into the right axillary space of each of male ddY mice weighing 20±2 g.
A test compound was dissolved in a physiological saline solution or a polyoxyethylene sorbitan monolaurate-containing physiological saline solution, and 0.1 to 0.2 ml of the solution was intravenously injected to five mice as one group 24 hours after the implatation of the tumor cells.
The anti-tumor activity of the test compound was determined by measuring the major diameter (a) and the minor diameter (b) of the tumor 7 days after the implantation of tumor cells, and the value of (a×b^2/ 2), which corresponds to the volume of the tumor, was calculated. The intended anti-tumor activity is represented by a ratio of T/C, in which C indicates the tumor volume of mice of the control group to which a physiological saline solution instead of the test compound was administered and T indicates the tumor volume of mice of the test group to which the test compound was administered. T/C at each dose given was plotted in a graph in which T/C is shown by an ordinary scale on the vertical axis and a dose is shown by a logarithmic scale on the horizontal axis. The relation between the dose and T/C was determined to be a straight line by the least-squares method. From the regression formula of the straight line thus obtained, the dose of showing T/C=0.5 is calculated to give ED50.

Data set [1] can be described thus: Acute Toxicity (single intravenous injection). The following applies: mouse, in vivo, ddY mice, single i.v., 14 days observation, Behrens Kaerber's method. On the procedure: A test compound was intravenously injected once to five ddY mice as one group. […] LD50 was calculated from the death rate of each group according to the Behrens Kaerber's method.

By IC50 is commonly meant the concentration that inhibits the measured activity by half. High values mean lower potency, low ones higher potency. In general, ED50 refers to the dose that gives a 50% effect, or the effect in half of the subjects. A higher ED50 goes with weaker potency. By LD50 is commonly meant the dose expected to kill half of the subjects tested.

`CO[C@@]12[C@H](COC(N)=O)C3=C(C(=O)C(CSc4ccccn4)=C(N)C3=O)N1C[C@@H]1N[C@@H]12` [Compound 1, 6-Demethyl-6-[(2-pyridylthio)methyl]mitomycin C] registered an IC50 with HeLa S3 cells of 1.8 µM.
Turning to `CO[C@@]12[C@H](COC(N)=O)C3=C(C(=O)C(CSc4ncccc4O)=C(N)C3=O)N1C[C@@H]1N[C@@H]12` [Compound 2, 6-Demethyl-6-[[(3-hydroxypyridin-2-yl)thio]methyl]mitomycin C], the ED50 in the data set with Sarcoma 180 Solid Tumor was determined as 3.7 mg/kg. Also, the IC50 in the data set with HeLa S3 cells stood at 0.19 µM. The LD50 at 336 h in data set [1] is 15 mg/kg.
On the same counts, the results for `CO[C@@]12[C@H](COC(N)=O)C3=C(C(=O)C(CSc4ncccn4)=C(N)C3=O)N1C[C@@H]1N[C@@H]12` [Compound 3, 6-Demethyl-6-[(2-pyrimidinylthio)methyl]mitomycin C] are 8.9 mg/kg, 0.95 µM and 26 mg/kg.
In turn, `CO[C@@]12[C@H](COC(N)=O)C3=C(C(=O)C(CSc4nc(C)cc(C)n4)=C(N)C3=O)N1C[C@@H]1N[C@@H]12` [Compound 4, 6-Demethyl-6-[[(4,6-dimethylpyrimidin-2-yl)thio]methyl]mitomycin C] gave an IC50 with HeLa S3 cells of 1.1 µM.
`CO[C@@]12[C@H](COC(N)=O)C3=C(C(=O)C(CSC4=NCCS4)=C(N)C3=O)N1C[C@@H]1N[C@@H]12` [Compound 11, 6-Demethyl-6-[(2-thiazolinylthio)methyl]mitomycin C] gave an ED50 with Sarcoma 180 Solid Tumor of 5.9 mg/kg. This compound yielded a half-inhibitory concentration (IC50) in the data set on HeLa S3 cells of 0.82 µM. Moreover, the LD50 at 336 h in data set [1] was determined as 9.4 mg/kg.
As to `CO[C@@]12[C@H](COC(N)=O)C3=C(C(=O)C(CSc4nccs4)=C(N)C3=O)N1C[C@@H]1N[C@@H]12` [Compound 12, 6-Demethyl-6-[(2-thiazolylthio)methyl]mitomycin C], in the data set on HeLa S3 cells, it took 1.4 µM to reach half-maximal inhibition (IC50).
For `CO[C@@]12[C@H](COC(N)=O)C3=C(C(=O)C(CSc4nc5ccccc5s4)=C(N)C3=O)N1C[C@@H]1N[C@@H]12` [Compound 13, 6-Demethyl-6-[(2-benzothiazolylthio)methyl]mitomyc-in C], in the data set on Sarcoma 180 Solid Tumor, the ED50 was found to be 36 mg/kg. This compound also displayed an IC50 in the data set on HeLa S3 cells of 0.7 µM. The compound further gave a median lethal dose (LD50) at 336 h in data set [1] greater than 50 mg/kg.
The corresponding values for `CO[C@@]12[C@H](COC(N)=O)C3=C(C(=O)C(CS[C@@H]4O[C@H](COC(C)=O)[C@@H](OC(C)=O)[C@H](OC(C)=O)[C@H]4OC(C)=O)=C(N)C3=O)N1C[C@@H]1N[C@@H]12` [Compound 16, 6-Demethyl-6-[[(2,3,4,6-tetra-O-acetyl-β-D-glucopyranosyl)thio]methyl]mitomycin C] are 24 mg/kg, 1.1 µM and 38 mg/kg.

These data come from US5180825A, “Mitomycin derivatives” (Kyowa Hakko Kogyo Co., Ltd., priority 1990, dated 1993).
